Assay results as given in PMC11200585, “Prospects for Prostate Cancer Chemotherapy: Cytotoxic Evaluation and Mechanistic Insights of Quinolinequinones with ADME/PK Profile” (Biomedicines, 2024).

Experiments:
Format in all cases: cell-based, human
MALME-3M = test: NCI-60 five-dose assay (melanoma); details: 48 h, SRB
IGROV1 [1] = test: NCI-60 five-dose assay (ovarian cancer); details: SRB
MDA-MB-468 = test: NCI-60 five-dose assay (breast cancer); details: 48 h, SRB
PC-3 [2] = test: NCI-60 one-dose screen (prostate cancer); details: 10 µM single dose
Procedure: (§1) The obtained quinolinequinones were submitted to NCI, Bethesda, USA, and, as per standard protocol of NCI, all compounds were evaluated for their antiproliferative activity at single-dose assay (10 µM concentration in DMSO) on a panel of 60 cancer cell lines derived from leukemia, non-small-cell lung, colon, CNS, melanoma, ovarian, renal, prostate, and breast, as per protocol. Tested compounds were added to the microtiter culture plates followed by incubation for 48 h at 37 °C. Sulforhodamine B (SRB), a protein-binding dye, is used for endpoint determination. The percent of the growth of the treated cells was determined in comparison to the untreated control cells and the results of each tested compound were reported. Data from one-dose experiments pertain to the percentage growth at 10 μM [16, 17, 18].

DU-145 [3] = test: NCI-60 one-dose screen (prostate cancer); details: 10 µM single dose, 48 h
Procedure: as §1

SF-539 [4] = test: NCI-60 five-dose assay (CNS cancer); details: 48 h, SRB
UACC-62 = test: NCI-60 five-dose assay (melanoma); details: 48 h, SRB
LOX IMVI = test: NCI-60 five-dose assay (melanoma); details: 48 h, SRB
U251 = test: NCI-60 one-dose screen (CNS cancer)
Procedure: as §1

SF-295 = test: NCI-60 one-dose screen (CNS cancer); details: 10 µM single dose, 48 h
Procedure: as §1

SNB-75 = test: NCI-60 one-dose screen (CNS cancer); details: 10 µM single dose, 48 h
Procedure: as §1

SF-539 [5] = test: NCI-60 one-dose screen (CNS cancer); details: 10 µM single dose, 48 h
Procedure: as §1

SF-268 = test: NCI-60 one-dose screen (CNS cancer); details: 10 µM single dose, 48 h
Procedure: as §1

SNB-19 = test: NCI-60 one-dose screen (CNS cancer); details: 10 µM single dose, 48 h
Procedure: as §1

DU-145 [6] = test: NCI-60 five-dose assay (prostate cancer); details: 48 h, SRB
MOLT-4 = test: NCI-60 one-dose screen (leukemia); details: 10 µM single dose, 48 h
Procedure: as §1

PC-3 [7] = test: NCI-60 five-dose assay (prostate cancer); details: 48 h, SRB
HOP-92 = test: NCI-60 five-dose assay (non-small cell lung cancer); details: 48 h, SRB
NCI/ADR-RES [8] = test: NCI-60 five-dose assay (ovarian cancer); details: 48 h, SRB
UO-31 = test: NCI-60 one-dose screen (renal cancer); details: 10 µM single dose, 48 h
Procedure: as §1

SN12C = test: NCI-60 one-dose screen (renal cancer); details: 10 µM single dose, 48 h
Procedure: as §1

TK-10 = test: NCI-60 one-dose screen (renal cancer); details: 10 µM single dose, 48 h
Procedure: as §1

786-0 [9] = test: NCI-60 one-dose screen (renal cancer); details: 10 µM single dose
Procedure: as §1

A498 = test: NCI-60 one-dose screen (renal cancer); details: 10 µM single dose, 48 h
Procedure: as §1

ACHN [10] = test: NCI-60 one-dose screen (renal cancer); details: 10 µM single dose, 48 h
Procedure: as §1

ACHN [11] = test: NCI-60 five-dose assay (renal cancer); details: 48 h, SRB
786-0 [12] = test: NCI-60 five-dose assay (renal cancer); details: 48 h, SRB
OVCAR-8 [13] = test: NCI-60 one-dose screen (ovarian cancer); details: 10 µM single dose
Procedure: as §1

IGROV1 [14] = test: NCI-60 one-dose screen (ovarian cancer); details: 10 µM single dose, 48 h
Procedure: as §1

OVCAR-4 = test: NCI-60 one-dose screen (ovarian cancer); details: 10 µM single dose, 48 h
Procedure: as §1

SK-OV-3 = test: NCI-60 one-dose screen (ovarian cancer); details: 10 µM single dose, 48 h
Procedure: as §1

NCI/ADR-RES [15] = test: NCI-60 one-dose screen (ovarian cancer); details: 10 µM single dose, 48 h
Procedure: as §1

OVCAR-5 = test: NCI-60 one-dose screen (ovarian cancer); details: 10 µM single dose, 48 h
Procedure: as §1

HCT-116 = test: NCI-60 five-dose assay (colon cancer); details: 48 h, SRB
OVCAR-3 = test: NCI-60 five-dose assay (ovarian cancer); details: 48 h, SRB
OVCAR-8 [16] = test: NCI-60 five-dose assay (ovarian cancer); details: 48 h, SRB
HS 578T = test: NCI-60 five-dose assay (breast cancer); details: 48 h, SRB
NCI-H460 = test: NCI-60 five-dose assay (non-small cell lung cancer); details: 48 h, SRB
[17] = Homo sapiens, read-out: LC50 (the source's name)

CCOc1ccc(NC2=C(Cl)C(=O)c3nc(C)ccc3C2=O)cc1 [AQQ3]
TGI (MALME-3M): 3.16 µM
GI50 (MALME-3M; Homo sapiens): 1.65 µM
LC50 (MALME-3M; Homo sapiens): 6.02 µM
TGI (IGROV1 [1]; 48 h): 2.76 µM
GI50 (IGROV1 [1]; Homo sapiens, IGROV-1, 48 h): 1.36 µM
LC50 (IGROV1 [1]; Homo sapiens, IGROV-1, 48 h): 5.61 µM
TGI (MDA-MB-468): 2.92 µM
GI50 (MDA-MB-468; Homo sapiens): 1.49 µM
LC50 (MDA-MB-468; Homo sapiens): 5.75 µM
GP (growth percentage) (PC-3 [2]; 48 h): 10.40%
inhibition at 10 µM (PC-3 [2]; Homo sapiens): 89.6%
GP (growth percentage) (DU-145 [3]): −92.73%
TGI (SF-539 [4]): 3.13 µM
GI50 (SF-539 [4]; Homo sapiens): 1.68 µM
LC50 (SF-539 [4]; Homo sapiens): 5.84 µM
TGI (UACC-62): 3.29 µM
GI50 (UACC-62; Homo sapiens): 1.81 µM
LC50 (concentration killing 50% of cells) (UACC-62; Homo sapiens): 5.97 µM
TGI (LOX IMVI): 2.33 µM
GI50 (LOX IMVI; Homo sapiens): 1.06 µM
LC50 (concentration killing 50% of cells) (LOX IMVI; Homo sapiens): 5.14 µM
GP (growth percentage) (U251; 10 µM single dose, 48 h): 15.60%
inhibition at 10 µM (U251; Homo sapiens, U-251, 10 µM single dose): 84.4%
GP (growth percentage) (SF-295): 51.05%
GP (growth percentage) (SNB-75): 96.54%
GP (growth percentage) (SF-539 [5]): −58.82%
GP (growth percentage) (SF-268): 32.33%
GP (growth percentage) (SNB-19): 44.68%
TGI (DU-145 [6]): 3.13 µM
GI50 (DU-145 [6]; Homo sapiens): 1.72 µM
CC50 (DU-145 [6]; [17]): 5.68 µM
GP (growth percentage) (MOLT-4): −46.73%
TGI (PC-3 [7]): 2.77 µM
GI50 (PC-3 [7]; Homo sapiens): 1.29 µM
CC50 (PC-3 [7]; [17]): 5.93 µM
TGI (HOP-92): 3.51 µM
GI50 (HOP-92; Homo sapiens): 2.01 µM
LC50 (50% lethal concentration) (HOP-92; Homo sapiens): 6.12 µM
TGI (NCI/ADR-RES [8]): 4.11 µM
GI50 (NCI/ADR-RES [8]; Homo sapiens): 1.7 µM
CC50 (NCI/ADR-RES [8]; [17]): 9.93 µM
GP (growth percentage) (UO-31): −65.05%
GP (growth percentage) (SN12C): −57.33%
GP (growth percentage) (TK-10): 121.08%
GP (growth percentage) (786-0 [9]; 48 h): 8.39%
inhibition at 10 µM (786-0 [9]; Homo sapiens): 91.6%
GP (growth percentage) (A498): 100.96%
GP (growth percentage) (ACHN [10]): −98.42%
TGI (ACHN [11]): 2.92 µM
GI50 (ACHN [11]; Homo sapiens): 1.57 µM
LC50 (ACHN [11]; Homo sapiens): 5.45 µM
TGI (786-0 [12]): 3.19 µM
GI50 (786-0 [12]; Homo sapiens): 1.72 µM
LC50 (786-0 [12]; Homo sapiens): 5.89 µM
GP (growth percentage) (OVCAR-8 [13]; 48 h): 1.03%
inhibition at 10 µM (OVCAR-8 [13]; Homo sapiens): 99%
GP (growth percentage) (IGROV1 [14]): −82.43%
GP (growth percentage) (OVCAR-4): −97.52%
GP (growth percentage) (SK-OV-3): 79.78%
GP (growth percentage) (NCI/ADR-RES [15]): −15.63%
GP (growth percentage) (OVCAR-5): 54.83%
TGI (HCT-116): 2.79 µM
GI50 (HCT-116; Homo sapiens): 1.32 µM
LC50 (HCT-116; Homo sapiens): 5.92 µM
TGI (OVCAR-3): 2.19 µM
GI50 (OVCAR-3; Homo sapiens): 0.962 µM
CC50 (OVCAR-3; [17]): 4.87 µM
TGI (OVCAR-8 [16]): 3.01 µM
GI50 (OVCAR-8 [16]; Homo sapiens): 1.57 µM
CC50 (OVCAR-8 [16]; [17]): 5.77 µM
TGI (HS 578T): 5.82 µM
GI50 (HS 578T; Homo sapiens): 2.22 µM
CC50 (HS 578T; [17]): > 100 µM
TGI (NCI-H460): 10.4 µM
GI50 (NCI-H460; Homo sapiens): 3.08 µM
CC50 (NCI-H460; [17]): 49.7 µM
